Experiment: xn = mol fraction of the nth substance listed

COCCO + CCCCO
viscosity [mPa·s]
Settings | 298.15 K | 308.15 K | 313.15 K | 318.15 K
100 kPa, x1 = 0.1009 | 2.27 | – | 1.6 | –
100 kPa, x1 = 0.2003 | 2.06 | – | 1.48 | –
100 kPa, x1 = 0.3003 | 1.91 | – | 1.39 | –
100 kPa, x1 = 0.4012 | 1.8 | – | 1.32 | –
100 kPa, x1 = 0.5008 | 1.72 | – | 1.27 | –
100 kPa, x1 = 0.6012 | 1.65 | – | 1.24 | –
100 kPa, x1 = 0.7006 | 1.61 | – | 1.21 | –
100 kPa, x1 = 0.7998 | 1.58 | – | 1.19 | –
100 kPa, x1 = 0.9 | 1.56 | – | 1.18 | –
101 kPa, x1 = 0.09765 | 2.212 | 1.688 | – | 1.266
101 kPa, x1 = 0.1958 | 2.061 | 1.583 | – | 1.212
101 kPa, x1 = 0.2945 | 1.948 | 1.49 | – | 1.172
101 kPa, x1 = 0.3937 | 1.88 | 1.355 | – | 1.117
101 kPa, x1 = 0.4934 | 1.813 | 1.304 | – | 1.063
101 kPa, x1 = 0.5937 | 1.767 | 1.248 | – | 1.046
101 kPa, x1 = 0.6944 | 1.723 | 1.219 | – | 1.036
101 kPa, x1 = 0.7957 | 1.674 | 1.191 | – | 0.996
101 kPa, x1 = 0.8976 | 1.622 | 1.179 | – | 0.9925
101.33 kPa, x1 = 0.1184 | – | 1.694 | – | –
101.33 kPa, x1 = 0.2345 | – | 1.551 | – | –
101.33 kPa, x1 = 0.3377 | – | 1.443 | – | –
101.33 kPa, x1 = 0.4484 | – | 1.361 | – | –
101.33 kPa, x1 = 0.5476 | – | 1.305 | – | –
101.33 kPa, x1 = 0.6312 | – | 1.265 | – | –
101.33 kPa, x1 = 0.7363 | – | 1.229 | – | –
101.33 kPa, x1 = 0.9104 | – | 1.195 | – | –

CCCCNCCCC + CCCCCO
viscosity [mPa·s], 101.33 kPa
Settings | x1 = 0.0971 | x1 = 0.2014 | x1 = 0.3007 | x1 = 0.4003 | x1 = 0.5004 | x1 = 0.5841 | x1 = 0.6901 | x1 = 0.7836 | x1 = 0.8845
303.15 K | 2.493 | 2.178 | 1.913 | 1.676 | 1.473 | 1.319 | 1.142 | 1.006 | 0.8804
313.15 K | 2.078 | 1.814 | 1.601 | 1.41 | 1.241 | 1.116 | 0.9767 | 0.8701 | 0.7633

COCCO + COC(=O)OC
298.15 K, 101.33 kPa
Settings | viscosity [mPa·s]
x1 = 0.0114 | 0.593
x1 = 0.0258 | 0.594
x1 = 0.0442 | 0.598
x1 = 0.0637 | 0.6
x1 = 0.0769 | 0.603
x1 = 0.0975 | 0.608
x1 = 0.1462 | 0.624
x1 = 0.2295 | 0.658
x1 = 0.2503 | 0.669
x1 = 0.2778 | 0.681
x1 = 0.3223 | 0.704
x1 = 0.34 | 0.713
x1 = 0.4034 | 0.758
x1 = 0.4719 | 0.81
x1 = 0.5173 | 0.848
x1 = 0.5482 | 0.874
x1 = 0.5889 | 0.91
x1 = 0.6404 | 0.96
x1 = 0.7382 | 1.075
x1 = 0.814 | 1.12
x1 = 0.8597 | 1.252
x1 = 0.89 | 1.305
x1 = 0.9189 | 1.355
x1 = 0.9738 | 1.471
x2 = 0.0109 | 1.516

CC(=O)OC(C)C + Cc1ccccc1C
viscosity [mPa·s], 101 kPa
Settings | x1 = 0.1037 | x1 = 0.2009 | x1 = 0.3016 | x1 = 0.4027 | x1 = 0.5048 | x1 = 0.6019 | x1 = 0.7013 | x1 = 0.8041 | x1 = 0.9437
303.15 K | 0.669 | 0.645 | 0.62 | 0.595 | 0.571 | 0.55 | 0.527 | 0.504 | 0.472
313.15 K | 0.596 | 0.573 | 0.552 | 0.53 | 0.509 | 0.489 | 0.47 | 0.45 | 0.424

CCCCNCCCC + c1ccccc1
viscosity [mPa·s], 101 kPa
Settings | x1 = 0.01077 | x1 = 0.02009 | x1 = 0.02993 | x1 = 0.03893 | x1 = 0.04865 | x1 = 0.05929 | x1 = 0.06883 | x1 = 0.07963 | x1 = 0.08917
303.15 K | 0.5674 | 0.5699 | 0.5746 | 0.5771 | 0.5809 | 0.584 | 0.5864 | 0.5907 | 0.5931
313.15 K | 0.4959 | 0.4998 | 0.503 | 0.5067 | 0.511 | 0.5134 | 0.515 | 0.5177 | 0.5198

CCCC(=O)O + ClC(Cl)(Cl)Cl
298.15 K, 101 kPa
Settings | viscosity [mPa·s]
x1 = 0.08 | 0.911
x1 = 0.16 | 0.925
x1 = 0.24 | 0.945
x1 = 0.3 | 0.966
x1 = 0.54 | 1.079
x1 = 0.64 | 1.142
x1 = 0.72 | 1.201
x1 = 0.87 | 1.331

CCCCCCCCCCCCOS(=O)(=O)[O-].[Na+] + O
101.33 kPa
Settings | viscosity [mPa·s]
303.15 K, x1 = 0.000252 | 0.8085
308.15 K, x1 = 0.000324 | 0.7345
308.15 K, x1 = 0.000432 | 0.7465
313.15 K, x1 = 7.2e-05 | 0.6585

CCCCBr + Cc1ccc(C)cc1
308.15 K, 101 kPa
Settings | viscosity [mPa·s]
x2 = 0.1002 | 0.5174
x2 = 0.2 | 0.5139
x2 = 0.2996 | 0.5114
x2 = 0.3997 | 0.5104
x2 = 0.4329 | 0.5092
x2 = 0.6161 | 0.5084
x2 = 0.7006 | 0.5095
x2 = 0.7996 | 0.5107
x2 = 0.8946 | 0.5121

C[Si](C)(C)O[Si](C)(C)O[Si](C)(C)O[Si](C)(C)O[Si](C)(C)O[Si](C)(C)C + C[Si](C)(C)O[Si](C)(C)O[Si](C)(C)O[Si](C)(C)C
Settings | viscosity [mPa·s]
298.15 K, 101 kPa, x1 = 0.413 | 1.738
